One test concerns the target T1, RhoA (Homo sapiens, UniProt P61586).
T1 construct: endogenous in cells; host or cells: HEK293SL
Description: GST-Rhotekin-RBD pull-down of AT1R-mediated RhoA activation. The test is classed as cell-based. Particulars: for Rho-GTP/Rho: GST-Rhotekin-RBD, listed as Comp 21. On the procedure:
Activation of ARF1, ARF6, Ras, and Rho were assessed by using GST pull-down assays. HEK293SL cells were transiently transfected with 3 µg AT1R-flag only (Ras and Rho) or along with 500 ng HA-ARF6 (ARF6) or HA-ARF1 (ARF1). Forty-eight hours later, the HEK293 or MDA-MB-231 cells were serum-starved for 4 h with DMEM containing 20 mM HEPES then pretreated with DMSO or Rasarfin (50 µM) for 30 min. Cells were then stimulated with 1 µM AngII or 100 ng/ml EGF for 0 and 2 min. Cells were then washed once with ice-cold PBS and lysed for 30 min at 4 °C in 300 µl of lysis buffer (pH 7.5, 50 mM Tris-HCl, 140 mM NaCl, 5 mM MgCl2, 10% glycerol (v/v), 1% Nonidet P-40 (v/v), 1 mM dithiothreitol) supplemented with protease inhibitors (1 mM phenylmethyl-sulfonyl fluoride (PMSF), 10 µg/ml leupeptin, 5 µg/ml aprotinin, 1 µg/ml pepstatin A) and phosphatase inhibitors (20 mM NaF, 0.025 mM pervanadate). The samples were cleared by centrifugation and 30 µl (cell lysates) was kept for assessing total protein contents. The remaining was transferred to fresh tubes with 20 µg of either GST, GST-GGA3-PBD, GST-Raf1-RBD or GST-Rhotekin-RBD coupled to glutathione resin and rotated for 1–2 h at 4 °C. Beads were washed twice with lysis buffer and proteins were eluted in 25 μl 2x laemmli buffer by heating at 65 °C for 15 min. Proteins were resolved on 14% SDS-PAGE, transferred to nitrocellulose membranes, and immunoblotted for HA, Ras, RhoA, H-Ras, or ARF6. ImageLab 5.2 software was used to quantify the digital blots as fold of the amount of pulled down protein over total protein. Uncropped coomassie gels and immunoblots are provided in the Source Data file.

For a further test, the system named is β-arrestin2. Description: Confocal microscopy of β-arrestin2-YFP trafficking with AT1R. The test is classed as cell-based, human. The settings on record: 50 μM; AngII. On the procedure: One day before transfection, cells were seeded in 35-mm glass-bottom dishes (MatTek Corporation) at a density of 1 × 10^5 cells per dish. For the recordings of receptor internalization, HEK293 SL cells were transfected with 2 μg of AT1R-YFP. For the recordings of β-arrestin-2 recruitment to the receptor, HEK293SL cells were transfected with 50 ng of β-arrestin2-YFP and 250 ng of Flag-AT1R or HA-B2R. Forty-eight hours post-transfection, cells were serum starved, preincubated with DMSO (0.1% final concentration) or Rasarfin (50 μM) for 30 min at 37 °C. AT1R-expressing cells were stimulated with angiotensinII (AngII; 100 nM) and B2R-expressing cells were stimulated with bradykinin (BK; 1 μM) for 30 min (receptor-YFP) or 15 min (β-arrestin2-YFP). Cells were imaged with Zeiss LSM-510 and/or LSM-710 laser scanning confocal microscope. To detect YFP, […] and BP 505–550 nm emission filter. Images (2048 × 2048) were collected using a 63x oil immersion lens.

The target in the next test is K-Ras (Homo sapiens, UniProt P01116). Briefly: In vitro mant-GTP exchange assay, purified K-Ras-WT with SOS1. The test is classed as biochemical. Also noted: GST (N); FLAG (N); host or cells: E. coli BL21. Particulars: 50 μM. On the procedure: Ras activity was assessed in a 384-well black bottom plate using the mant-GTP exchange factor assay that measures the uptake of the fluorescent nucleotide analog N-methylanthraniloyl-GTP (mant-GTP) into GTPases. For Ras activation, 2X exchange buffer, 1.66 μg of purified pGEX-6P-1-H-Ras or pGEX-6P-1-K-Ras-WT or pGEX-6P-1-K-Ras-Y32A were added per well in presence of DMSO, different concentrations of Rasarfin (as indicated) or 50 µM of compounds 21.4, 21.7, or 21.8. Using the Infinite 200 Pro plate reader (Tecan) with filters set at 360 nm and 440 nm for detecting the excitation and emissions, respectively, and temperature set at 20 °C, 5 readings were recorded every 5 s before the addition of either H2O, 40 mM EDTA or 0.66 μg purified SOS1. The fluorescence of mant-GTP uptake was measured every 30 sec for 30 min and quantified as the delta relative fluorescence units (RFU), which was calculated as the RFU post-addition minus the 5 averaged RFU pre-addition, per condition.
K-Ras, sequence (P01116 1-188 isoform P01116-2): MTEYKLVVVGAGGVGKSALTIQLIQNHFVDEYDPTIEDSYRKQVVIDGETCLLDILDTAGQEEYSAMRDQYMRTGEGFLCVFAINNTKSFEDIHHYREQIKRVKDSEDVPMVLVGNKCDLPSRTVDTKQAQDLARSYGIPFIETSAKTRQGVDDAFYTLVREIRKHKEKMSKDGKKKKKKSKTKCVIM

A further test concerns the target T2, ARF6 (Homo sapiens, UniProt P62330).
T2 construct: expressed in transfected cells; host or cells: HEK293SL
Description: GST-GGA3-PBD pull-down of AT1R-mediated HA-ARF6 activation. Particulars: for ARF6-GTP/ARF6, GST-GGA3-PBD pull down: Comp 21 50 μM, individual experiments. The test is classed as cell-based. On the procedure: HEK293 cells were transfected with a BRET sensor that monitors the interaction between β-arrestins and the β-appendage of AP-2 (Fig. 2a)[26],[33]. […] The small GTPase ARF6, which binds β-arrestins and facilitates AP-2 and clathrin recruitment at the PM, is also necessary for CCPs initiation and receptor internalization. Therefore, ARF6 activity was assessed using the protein-3 binding domain (PBD) of the golgi-associated, gamma adaptin ear-containing, ARF-binding protein 3 (GGA3) fused to GST (GST-GGA3-PBD) in a pull-down assay, which allows the detection of GTP-bound ARF6 in cells[34] (Fig. 2b). […] This inhibition was selective for ARF6 since 21 had no effect on AT1R-dependent ARF1 activation (Supplementary Fig. 2a). We also devised a BRET assay to quantitatively assess 21’s action on ARF activity. The ARF BRET assay was created using the GGA3-PBD fused to RlucII (GGA3-PBD-RlucII) and the rGFP anchored at the PM (rGFP-CAAX) (Supplementary Fig. 3a). […] 21 blocked ARF’s activation by 40–60% following AT1R stimulation (Fig. 2c).
Activation of ARF1, ARF6, Ras, and Rho were assessed by using GST pull-down assays. HEK293SL cells were transiently transfected with 3 µg AT1R-flag only (Ras and Rho) or along with 500 ng HA-ARF6 (ARF6) or HA-ARF1 (ARF1). Forty-eight hours later, the HEK293 or MDA-MB-231 cells were serum-starved for 4 h with DMEM containing 20 mM HEPES then pretreated with DMSO or Rasarfin (50 µM) for 30 min. Cells were then stimulated with 1 µM AngII or 100 ng/ml EGF for 0 and 2 min. Cells were then washed once with ice-cold PBS and lysed for 30 min at 4 °C in 300 µl of lysis buffer (pH 7.5, 50 mM Tris-HCl, 140 mM NaCl, 5 mM MgCl2, 10% glycerol (v/v), 1% Nonidet P-40 (v/v), 1 mM dithiothreitol) supplemented with protease inhibitors (1 mM phenylmethyl-sulfonyl fluoride (PMSF), 10 µg/ml leupeptin, 5 µg/ml aprotinin, 1 µg/ml pepstatin A) and phosphatase inhibitors (20 mM NaF, 0.025 mM pervanadate). […] ImageLab 5.2 software was used to quantify the digital blots as fold of the amount of pulled down protein over total protein. […]

Structures are written as SMILES. Several values for one entry are separate records, joined by “and”; a condition that tells them apart may be missing. Equal values may be shown once.

These results are taken from paper PMC8333425, “Discovery of a dual Ras and ARF6 inhibitor from a GPCR endocytosis screen” (Nature Communications, 2021).

T2 sequence (P62330 whole entry, species assumed): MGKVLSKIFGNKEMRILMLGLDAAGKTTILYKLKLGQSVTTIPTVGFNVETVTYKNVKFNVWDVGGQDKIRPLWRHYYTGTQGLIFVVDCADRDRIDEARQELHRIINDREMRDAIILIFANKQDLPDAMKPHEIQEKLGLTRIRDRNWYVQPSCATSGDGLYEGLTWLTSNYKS
T1 sequence (P61586 whole entry): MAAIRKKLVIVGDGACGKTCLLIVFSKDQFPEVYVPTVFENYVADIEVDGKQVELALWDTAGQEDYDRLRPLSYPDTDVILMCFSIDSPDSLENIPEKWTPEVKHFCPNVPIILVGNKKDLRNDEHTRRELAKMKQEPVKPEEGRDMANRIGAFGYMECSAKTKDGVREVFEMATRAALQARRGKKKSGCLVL

A word on the inhibition: it is the drop in the measured response relative to a control, in per cent. `CC(C)C(=O)N1CCN(c2ccc(NC(=O)c3cc4ccccc4o3)cc2Cl)CC1` [Compound 21]: the “pull-down of Rho-GTP by GST-Rhotekin-RBD from cells stimulated with AT1R” value on RhoA (50 μM) was “nor did it prevent the pull-down of Rho-GTP”. Further, the Rho-GTP/Rho was 0.2491 and 0.2385 and 0.2151 and 0.2027 at RhoA (AngII); 0.1261 and 0.1465 and 0.07786 and 0.1043 on RhoA (Ctrl). Moreover, the “β-arrestin trafficking with AT1R into endosomes (microscopy)” value in the test with β-arrestin2 is “prevented β-arrestins’ trafficking with receptors into endosomes”. Also, the “SOS-mediated mant-GTP binding onto purified K-Ras” value on K-Ras is “inhibited the SOS-mediated mant-GTP binding”. In addition, the inhibition at 50 µM at ARF6 (50 μM, read-out: inhibition of ARF6-GTP (AngII-stimulated cells, pull-down)) is over 70%. For the same compound, the “ARF6-GTP/ARF6, GST-GGA3-PBD pull down” value on ARF6 (AngII) was 0.1415 and 0.1921 and 0.09307 and 0.2014; on ARF6 (Control (no AngII)), 0.0894 and 0.1773 and 0.03131 and 0.1335.
